According to US10344060B2 (priority 2013, dated 2019):

Tests used:
hNav1.5 = hNav1.5 (Homo sapiens, UniProt Q14524); assay: cell-based; details: ratio of PX tonic IC50 values
hNav1.4 = hNav1.4 (Homo sapiens, UniProt P35499); assay: cell-based; assay type: cell-based; details: ratio of PX tonic IC50 values
hNav1.4, sequence (P35499 whole entry): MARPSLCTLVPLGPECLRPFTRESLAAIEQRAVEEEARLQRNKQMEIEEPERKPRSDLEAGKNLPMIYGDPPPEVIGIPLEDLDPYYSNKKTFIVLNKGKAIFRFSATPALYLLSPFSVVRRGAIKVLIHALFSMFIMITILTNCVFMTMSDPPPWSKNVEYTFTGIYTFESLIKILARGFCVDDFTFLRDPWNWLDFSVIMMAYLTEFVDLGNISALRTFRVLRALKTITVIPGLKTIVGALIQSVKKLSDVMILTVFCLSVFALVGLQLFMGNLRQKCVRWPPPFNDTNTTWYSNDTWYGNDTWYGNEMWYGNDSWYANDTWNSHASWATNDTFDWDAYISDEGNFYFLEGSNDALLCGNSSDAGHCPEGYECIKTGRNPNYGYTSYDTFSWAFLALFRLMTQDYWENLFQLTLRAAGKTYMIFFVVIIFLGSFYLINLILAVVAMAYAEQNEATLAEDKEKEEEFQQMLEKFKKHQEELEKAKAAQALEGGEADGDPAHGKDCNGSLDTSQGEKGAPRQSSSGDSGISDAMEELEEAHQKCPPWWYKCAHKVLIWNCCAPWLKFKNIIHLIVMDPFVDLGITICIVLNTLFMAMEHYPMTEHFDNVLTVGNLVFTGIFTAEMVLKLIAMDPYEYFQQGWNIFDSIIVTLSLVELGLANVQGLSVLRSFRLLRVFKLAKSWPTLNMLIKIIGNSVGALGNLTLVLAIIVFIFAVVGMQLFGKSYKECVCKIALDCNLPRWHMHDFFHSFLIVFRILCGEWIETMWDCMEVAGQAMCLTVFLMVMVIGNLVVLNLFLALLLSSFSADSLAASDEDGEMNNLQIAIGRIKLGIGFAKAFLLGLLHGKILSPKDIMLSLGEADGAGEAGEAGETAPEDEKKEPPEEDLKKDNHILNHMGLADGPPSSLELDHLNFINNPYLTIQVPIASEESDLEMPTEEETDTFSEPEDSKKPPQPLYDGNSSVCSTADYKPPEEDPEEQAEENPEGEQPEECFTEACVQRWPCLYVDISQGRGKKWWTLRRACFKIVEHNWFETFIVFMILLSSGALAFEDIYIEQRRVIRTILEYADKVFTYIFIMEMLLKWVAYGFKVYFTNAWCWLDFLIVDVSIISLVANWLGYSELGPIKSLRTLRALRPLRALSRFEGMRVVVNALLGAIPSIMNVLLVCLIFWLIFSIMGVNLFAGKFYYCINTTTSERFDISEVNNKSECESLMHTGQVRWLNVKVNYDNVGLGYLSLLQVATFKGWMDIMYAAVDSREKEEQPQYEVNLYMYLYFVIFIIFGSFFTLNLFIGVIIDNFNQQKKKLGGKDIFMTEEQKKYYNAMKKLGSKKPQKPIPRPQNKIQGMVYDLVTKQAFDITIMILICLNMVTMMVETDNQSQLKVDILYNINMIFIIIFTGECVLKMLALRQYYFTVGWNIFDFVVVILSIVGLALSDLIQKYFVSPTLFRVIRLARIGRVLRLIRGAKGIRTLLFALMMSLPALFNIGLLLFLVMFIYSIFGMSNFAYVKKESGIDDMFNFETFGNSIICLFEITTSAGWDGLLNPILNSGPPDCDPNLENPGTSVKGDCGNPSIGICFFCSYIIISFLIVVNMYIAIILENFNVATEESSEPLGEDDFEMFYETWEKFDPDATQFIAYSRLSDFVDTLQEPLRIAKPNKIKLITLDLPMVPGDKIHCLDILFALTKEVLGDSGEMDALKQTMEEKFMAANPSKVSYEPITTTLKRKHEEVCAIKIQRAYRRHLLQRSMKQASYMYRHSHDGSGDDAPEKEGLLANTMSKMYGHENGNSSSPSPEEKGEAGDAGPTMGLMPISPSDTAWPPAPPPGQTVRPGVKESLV

hNav1.5, sequence (Q14524 whole entry): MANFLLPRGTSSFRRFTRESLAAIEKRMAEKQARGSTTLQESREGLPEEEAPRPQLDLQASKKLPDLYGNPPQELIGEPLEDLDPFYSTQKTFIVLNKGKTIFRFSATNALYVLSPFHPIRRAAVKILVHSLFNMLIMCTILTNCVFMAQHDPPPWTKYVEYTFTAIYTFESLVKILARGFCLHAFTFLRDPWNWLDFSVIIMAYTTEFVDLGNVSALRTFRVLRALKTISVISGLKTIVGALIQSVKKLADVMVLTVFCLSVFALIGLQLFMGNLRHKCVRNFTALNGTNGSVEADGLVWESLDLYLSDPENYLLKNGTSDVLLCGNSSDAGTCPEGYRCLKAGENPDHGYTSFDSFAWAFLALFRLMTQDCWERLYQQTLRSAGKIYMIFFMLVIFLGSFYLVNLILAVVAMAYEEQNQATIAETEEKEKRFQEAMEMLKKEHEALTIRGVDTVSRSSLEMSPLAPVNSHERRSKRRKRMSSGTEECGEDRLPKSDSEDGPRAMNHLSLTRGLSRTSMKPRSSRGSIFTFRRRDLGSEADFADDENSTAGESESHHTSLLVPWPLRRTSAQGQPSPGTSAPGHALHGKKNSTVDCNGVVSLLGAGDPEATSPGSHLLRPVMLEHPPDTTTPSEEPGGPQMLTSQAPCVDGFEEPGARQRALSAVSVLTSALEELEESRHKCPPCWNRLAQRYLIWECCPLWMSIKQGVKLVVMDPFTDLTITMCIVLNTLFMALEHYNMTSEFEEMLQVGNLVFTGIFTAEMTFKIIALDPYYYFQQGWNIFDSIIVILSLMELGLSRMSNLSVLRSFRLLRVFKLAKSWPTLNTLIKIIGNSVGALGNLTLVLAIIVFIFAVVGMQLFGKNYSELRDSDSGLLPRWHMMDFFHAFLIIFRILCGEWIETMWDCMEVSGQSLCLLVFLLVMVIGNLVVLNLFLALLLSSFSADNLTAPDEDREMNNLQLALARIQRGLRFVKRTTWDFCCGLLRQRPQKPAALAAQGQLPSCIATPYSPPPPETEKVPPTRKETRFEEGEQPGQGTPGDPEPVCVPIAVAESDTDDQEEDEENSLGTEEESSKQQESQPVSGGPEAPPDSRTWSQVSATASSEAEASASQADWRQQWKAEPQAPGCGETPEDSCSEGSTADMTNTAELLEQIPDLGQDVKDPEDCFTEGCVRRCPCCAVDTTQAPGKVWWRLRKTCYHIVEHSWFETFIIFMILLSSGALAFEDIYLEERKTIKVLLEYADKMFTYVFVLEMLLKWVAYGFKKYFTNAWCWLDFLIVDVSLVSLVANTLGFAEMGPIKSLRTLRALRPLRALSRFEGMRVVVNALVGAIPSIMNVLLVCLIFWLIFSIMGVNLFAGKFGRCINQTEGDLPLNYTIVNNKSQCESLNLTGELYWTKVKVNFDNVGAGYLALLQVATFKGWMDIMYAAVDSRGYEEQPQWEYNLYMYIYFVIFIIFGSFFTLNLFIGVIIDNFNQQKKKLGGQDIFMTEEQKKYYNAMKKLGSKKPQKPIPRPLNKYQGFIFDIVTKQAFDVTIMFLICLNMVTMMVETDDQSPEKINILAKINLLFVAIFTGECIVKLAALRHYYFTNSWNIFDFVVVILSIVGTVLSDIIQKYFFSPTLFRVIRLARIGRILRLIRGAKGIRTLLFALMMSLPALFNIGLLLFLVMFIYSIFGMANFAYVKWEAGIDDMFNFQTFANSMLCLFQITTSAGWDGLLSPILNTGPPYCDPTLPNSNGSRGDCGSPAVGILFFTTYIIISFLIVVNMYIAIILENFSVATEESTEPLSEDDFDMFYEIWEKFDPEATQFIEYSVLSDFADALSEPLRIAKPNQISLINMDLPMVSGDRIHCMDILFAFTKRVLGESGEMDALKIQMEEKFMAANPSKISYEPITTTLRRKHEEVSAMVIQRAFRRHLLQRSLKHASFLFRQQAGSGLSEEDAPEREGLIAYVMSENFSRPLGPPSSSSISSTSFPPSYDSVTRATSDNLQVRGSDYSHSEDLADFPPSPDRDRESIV

Row | SMILES | Nav1.5/Nav1.7 (hNav1.5; Table 12) | Nav1.4/Nav1.7 (hNav1.4; Table 12) | Nav1.5/Nav1.7 (hNav1.5; Table 13) | Nav1.4/Nav1.7 (hNav1.4; Table 13)
1 | C#CC[C@@H]1NC(=O)[C@H](CCCNC(=N)N)NC(=O)[C@H](CCCCN)NC(=O)[C@H](CO)NC(=O)[C@H](CC(=O)O)NC(=O)[C@@H]2CSSC[C@@H]3NC(=O)[C@H](CCCNC(=N)N)NC(=O)[C@H](CC(C)C)NC(=O)CNC(=O)[C@H](CCC(=O)O)NC(=O)[C@H](CSSC[C@H](NC(=O)[C@@H](N)Cc4ccc(O)cc4)C(=O)N[C@@H](CCC(N)=O)C(=O)N[C@@H](CCCCN)C(=O)N[C@@H](Cc4c[nH]c5ccccc45)C(=O)N[C@@H](CCCC)C(=O)N[C@@H](Cc4c[nH]c5ccccc45)C(=O)N[C@@H]([C@@H](C)O)C(=O)N2)NC(=O)[C@H](CSSC[C@@H](C(=O)N[C@@H](CCCNC(=N)N)C(=O)N[C@@H](CCCCN)C(=O)N[C@@H](CCC(=O)O)C(=O)N[C@H](C(N)=O)[C@@H](C)CC)NC(=O)[C@H](Cc2c[nH]c4ccccc24)NC(=O)[C@H](CC(C)C)NC(=O)[C@H](CCCCN)NC3=O)NC1=O [compound 331] | 7119 | 213 |  | 
2 | C#CC[C@@H]1NC(=O)[C@@H]2CSSC[C@H](NC(=O)[C@@H](N)Cc3ccc(O)cc3)C(=O)N[C@@H](CCC(N)=O)C(=O)N[C@@H](CCCCN)C(=O)N[C@@H](Cc3c[nH]c4ccccc34)C(=O)N[C@@H](CCCC)C(=O)N[C@@H](Cc3c[nH]c4ccccc34)C(=O)N[C@@H]([C@@H](C)O)C(=O)N[C@H]3CSSC[C@H](NC(=O)[C@H](CCCNC(=N)N)NC(=O)[C@H](CC(C)C)NC(=O)CNC1=O)C(=O)N[C@@H](CCCCN)C(=O)N[C@@H](CC(C)C)C(=O)N[C@@H](Cc1c[nH]c4ccccc14)C(=O)N[C@H](C(=O)N[C@@H](CCCNC(=N)N)C(=O)N[C@@H](CCCCN)C(=O)N[C@@H](CCC(=O)O)C(=O)N[C@H](C(N)=O)[C@@H](C)CC)CSSC[C@H](NC(=O)[C@H](C)NC(=O)[C@H](CCCNC(=N)N)NC(=O)[C@H](CCCCN)NC(=O)[C@H](CO)NC(=O)[C@H](CC(=O)O)NC3=O)C(=O)N2 [compound 332] | 849 | 34 |  | 
3 | C#CC[C@H](N)C(=O)N[C@H]1CSSC[C@@H]2NC(=O)[C@@H]3CSSC[C@@H](C(=O)N[C@@H](CCCNC(=N)N)C(=O)N[C@@H](CCCCN)C(=O)N[C@H](C(=O)N[C@H](C(N)=O)[C@@H](C)CC)[C@@H](C)CC)NC(=O)[C@H](Cc4c[nH]c5ccccc45)NC(=O)[C@H](CC(C)C)NC(=O)[C@H](CCCCN)NC(=O)[C@H](CSSC[C@H](NC(=O)[C@H]([C@@H](C)O)NC(=O)[C@H](Cc4c[nH]c5ccccc45)NC(=O)[C@H](CCCC)NC(=O)[C@H](Cc4c[nH]c5ccccc45)NC(=O)[C@H](CCCCN)NC(=O)[C@H](CCC(N)=O)NC1=O)C(=O)N[C@@H](CC(=O)O)C(=O)N[C@@H](CO)C(=O)N[C@@H](CCCCN)C(=O)N[C@@H](CCCNC(=N)N)C(=O)N[C@@H](C)C(=O)N3)NC(=O)[C@H](CCC(=O)O)NC(=O)[C@H](CC(C)C)NC(=O)CNC(=O)[C@H](CCC(=O)O)NC2=O [compound 343] | 1011 | 300 |  | 
4 | C#CC[C@@H]1NC(=O)[C@H](CC(=O)O)NC(=O)[C@@H]2CSSC[C@@H]3NC(=O)[C@H](CCC(=O)O)NC(=O)[C@H](CC(C)C)NC(=O)CNC(=O)[C@H](CCC(=O)O)NC(=O)[C@H](CSSC[C@H](NC(=O)[C@@H](N)Cc4ccc(O)cc4)C(=O)N[C@@H](CCC(N)=O)C(=O)N[C@@H](CCCCN)C(=O)N[C@@H](Cc4c[nH]c5ccccc45)C(=O)N[C@@H](CCCC)C(=O)N[C@@H](Cc4c[nH]c5ccccc45)C(=O)N[C@@H]([C@@H](C)O)C(=O)N2)NC(=O)[C@H](CSSC[C@@H](C(=O)N[C@@H](CCCNC(=N)N)C(=O)N[C@@H](CCCCN)C(=O)N[C@H](C(=O)N[C@H](C(N)=O)[C@@H](C)CC)[C@@H](C)CC)NC(=O)[C@H](Cc2c[nH]c4ccccc24)NC(=O)[C@H](CC(C)C)NC(=O)[C@H](CCCCN)NC3=O)NC(=O)[C@H](C)NC(=O)[C@H](CCCNC(=N)N)NC(=O)[C@H](CCCCN)NC1=O [compound 344] | 193 | 230 |  | 
5 | C#CC[C@@H]1NC(=O)[C@H](CCCNC(=N)N)NC(=O)[C@H](CCCCN)NC(=O)[C@H](CO)NC(=O)[C@H](CC(=O)O)NC(=O)[C@@H]2CSSC[C@@H]3NC(=O)[C@H](CCC(=O)O)NC(=O)[C@H](CC(C)C)NC(=O)CNC(=O)[C@H](CCC(=O)O)NC(=O)[C@H](CSSC[C@H](NC(=O)[C@@H](N)Cc4ccc(O)cc4)C(=O)N[C@@H](CCC(N)=O)C(=O)N[C@@H](CCCCN)C(=O)N[C@@H](Cc4c[nH]c5ccccc45)C(=O)N[C@@H](CCCC)C(=O)N[C@@H](Cc4c[nH]c5ccccc45)C(=O)N[C@@H]([C@@H](C)O)C(=O)N2)NC(=O)[C@H](CSSC[C@@H](C(=O)N[C@@H](CCCNC(=N)N)C(=O)N[C@@H](CCCCN)C(=O)N[C@H](C(=O)N[C@H](C(N)=O)[C@@H](C)CC)[C@@H](C)CC)NC(=O)[C@H](Cc2c[nH]c4ccccc24)NC(=O)[C@H](CC(C)C)NC(=O)[C@H](CCCCN)NC3=O)NC1=O [compound 345] | 638 | 232 |  | 
6 | C#CC[C@@H]1NC(=O)[C@@H]2CSSC[C@H](NC(=O)[C@@H](N)Cc3ccc(O)cc3)C(=O)N[C@@H](CCC(N)=O)C(=O)N[C@@H](CCCCN)C(=O)N[C@@H](Cc3c[nH]c4ccccc34)C(=O)N[C@@H](CCCC)C(=O)N[C@@H](Cc3c[nH]c4ccccc34)C(=O)N[C@@H]([C@@H](C)O)C(=O)N[C@H]3CSSC[C@H](NC(=O)[C@H](CCC(=O)O)NC(=O)[C@H](CC(C)C)NC(=O)CNC1=O)C(=O)N[C@@H](CCCCN)C(=O)N[C@@H](CC(C)C)C(=O)N[C@@H](Cc1c[nH]c4ccccc14)C(=O)N[C@H](C(=O)N[C@@H](CCCNC(=N)N)C(=O)N[C@@H](CCCCN)C(=O)N[C@H](C(=O)N[C@H](C(N)=O)[C@@H](C)CC)[C@@H](C)CC)CSSC[C@H](NC(=O)[C@H](C)NC(=O)[C@H](CCCNC(=N)N)NC(=O)[C@H](CCCCN)NC(=O)[C@H](CO)NC(=O)[C@H](CC(=O)O)NC3=O)C(=O)N2 [compound 346] | 102 | 29 |  | 
7 | C#CC[C@H](N)C(=O)NCCOCCOCCOCCOCCC(=O)NCCCC[C@@H]1NC(=O)[C@@H]2CSSC[C@H](NC(=O)[C@H](Cc3ccc(O)cc3)NC(=O)[C@@H](N)CC#N)C(=O)N[C@@H](CCC(N)=O)C(=O)N[C@@H](CCCCN)C(=O)N[C@@H](Cc3c[nH]c4ccccc34)C(=O)N[C@@H](CCCC)C(=O)N[C@@H](Cc3c[nH]c4ccccc34)C(=O)N[C@@H]([C@@H](C)O)C(=O)N[C@H]3CSSC[C@H](NC(=O)[C@H](CCCNC(=N)N)NC(=O)[C@H](CC(C)C)NC(=O)CNC1=O)C(=O)N[C@@H](CCCCN)C(=O)N[C@@H](CC(C)C)C(=O)N[C@@H](Cc1c[nH]c4ccccc14)C(=O)N[C@H](C(=O)N[C@@H](CCCNC(=N)N)C(=O)N[C@@H](CCCCN)C(=O)N[C@H](C(=O)N[C@H](C(N)=O)[C@@H](C)CC)[C@@H](C)CC)CSSC[C@H](NC(=O)[C@H](C)NC(=O)[C@H](CCCNC(=N)N)NC(=O)[C@H](CCCCN)NC(=O)[C@H](CO)NC(=O)[C@H](CC(=O)O)NC3=O)C(=O)N2 [compound 385] | 0 | 0 |  | 
8 | CCCC[C@@H]1NC(=O)[C@H](Cc2c[nH]c3ccccc23)NC(=O)[C@H](CCCCN)NC(=O)[C@H](CCC(N)=O)NC(=O)[C@@H](NC(=O)[C@H](Cc2ccc(O)cc2)NC(=O)[C@@H](N)Cc2cn(CCOCCOCCOCCOCCOCCOCCOCCOCCOCCOCCOCCNC(=O)CSCc3ccccc3)nn2)CSSC[C@@H]2NC(=O)[C@@H]3CSSC[C@@H](C(=O)N[C@@H](CCCNC(=N)N)C(=O)N[C@@H](CCCCN)C(=O)N[C@H](C(=O)N[C@H](C(N)=O)[C@@H](C)CC)[C@@H](C)CC)NC(=O)[C@H](Cc4c[nH]c5ccccc45)NC(=O)[C@H](CC(C)C)NC(=O)[C@H](CCCCN)NC(=O)[C@H](CSSC[C@H](NC(=O)[C@H]([C@@H](C)O)NC(=O)[C@H](Cc4c[nH]c5ccccc45)NC1=O)C(=O)N[C@@H](CC(=O)O)C(=O)N[C@@H](CO)C(=O)N[C@@H](CCCCN)C(=O)N[C@@H](CCCNC(=N)N)C(=O)N[C@@H](C)C(=O)N3)NC(=O)[C@H](CCCNC(=N)N)NC(=O)[C@H](CC(C)C)NC(=O)CNC(=O)[C@H](CCC(=O)O)NC2=O [compound 427] |  |  | 1416 | 9
9 | C#CC[C@H](N)C(=O)NCCCC[C@@H]1NC(=O)[C@H](CCCNC(=N)N)NC(=O)[C@H](CCCCN)NC(=O)[C@H](CO)NC(=O)[C@H](CC(=O)O)NC(=O)[C@@H]2CSSC[C@@H]3NC(=O)[C@H](CCCNC(=N)N)NC(=O)[C@H](CC(C)C)NC(=O)CNC(=O)[C@H](CCC(=O)O)NC(=O)[C@H](CSSC[C@H](NC(=O)[C@H](Cc4ccc(O)cc4)NC(=O)[C@@H](N)CC#N)C(=O)N[C@@H](CCC(N)=O)C(=O)N[C@@H](CCCCN)C(=O)N[C@@H](Cc4c[nH]c5ccccc45)C(=O)N[C@@H](CC(C)C)C(=O)N[C@@H](Cc4c[nH]c5ccccc45)C(=O)N[C@@H]([C@@H](C)O)C(=O)N2)NC(=O)[C@H](CSSC[C@@H](C(=O)N[C@@H](CCCNC(=N)N)C(=O)N[C@@H](CCCCN)C(=O)N[C@@H](CCC(=O)O)C(=O)N[C@H](C(N)=O)[C@@H](C)CC)NC(=O)[C@H](Cc2c[nH]c4ccccc24)NC(=O)[C@H](CC(C)C)NC(=O)[C@H](CCCCN)NC3=O)NC1=O [compound 449] | 1038 | 111 |  | 
10 | CCCC[C@@H]1NC(=O)[C@H](Cc2c[nH]c3ccccc23)NC(=O)[C@H](CCCCN)NC(=O)[C@H](CCC(N)=O)NC(=O)[C@@H](NC(=O)[C@H](Cc2ccc(O)cc2)NC(=O)[C@H](CC#N)NC(=O)[C@@H](N)CCCCN)CSSC[C@@H]2NC(=O)[C@@H]3CSSC[C@@H](C(=O)N[C@@H](CCCNC(=N)N)C(=O)N[C@@H](CCCCN)C(=O)N[C@@H](CCC(=O)O)C(=O)N[C@H](C(N)=O)[C@@H](C)CC)NC(=O)[C@H](Cc4c[nH]c5ccccc45)NC(=O)[C@H](CC(C)C)NC(=O)[C@H](CCCCN)NC(=O)[C@H](CSSC[C@H](NC(=O)[C@H]([C@@H](C)O)NC(=O)[C@H](Cc4c[nH]c5ccccc45)NC1=O)C(=O)N[C@@H](CC(=O)O)C(=O)N[C@@H](CO)C(=O)N[C@@H](CCCCN)C(=O)N[C@@H](CCCNC(=N)N)C(=O)N[C@@H](CCCCNC(=O)[C@@H](N)Cc1cn(CCOCCOCCOCCOCCOCCOCCOCCOCCOCCOCCN)nn1)C(=O)N3)NC(=O)[C@H](CCCNC(=N)N)NC(=O)[C@H](CC(C)C)NC(=O)CNC(=O)[C@H](CCC(=O)O)NC2=O [compound 891] |  |  | 655 | 66
